According to US12678451B2, “Cannabinoid and omega fatty acid compositions and methods of using” (GreenWay Herbal Products, LLC, priority 2019, dated 2026):

What was measured:
[1] = system: differentiated U-937 cells; assay: Human cellular U-937 autophagy induction assay (anti-LC3); assay type: cell-based
Procedure: The induction of autophagy was monitored using anti-LC3 antibodies to detect LC3 on the autophagosome in human U-937 pro-monocytic histiocytic lymphoma cells (ATCC, Manassas, Va., USA), which generate morphologies characteristic of macrophages upon induction by various stimuli. U-937 cells were cultured in RPMI-1640 medium with L-glutamine and sodium bicarbonate (Sigma-Aldrich, St Louis, Mo.) supplemented with 10% fetal bovine serum (FBS) and 1% penicillin in 25 cm2 tissue flasks at 37° C. in a 5% CO2 humidified atmosphere and passaged every 2-3 days. U-937 cells were seeded in 96 well plates at 5×10^5 cells/mL and stimulated with 100 ng/mL PMA to induce differentiation for 24 hours. The cells were then treated with the various cannabinoids at 1.0 μM concentrations for 12 hours. 30 μM chloroquine was used as a positive control. After treatment, the cells were fixed using 3.7% formaldehyde in PBS for 15 minutes at room temperature and washed with PBS to remove the fixative. Permeabilization reagent (0.2% Triton X-100 in PBS) (Sigma-Aldrich) was added, the cells were incubated for 15 minutes at room temperature and then the cells were washed with PBS to remove the permeabilization reagent. LC3B rabbit polyclonal antibody (Invitrogen) was added at a final concentration of 0.5 μg/ml for 1 hour at room temperature and the cells were washed with PBS remove the primary antibody. Secondary conjugated goat anti-rabbit polyclonal antibody (Thermo Scientific) was then added at a final concentration of 2.0 μg/ml for 1 hour at room temperature. The cells were washed, Hoechst dye was added to stain the nucleus and the cells were imaged using an Arrayscan VTI high-content screening (HCS) reader (Thermo Scientific) with the appropriate filters and the data was analyzed using the vHCS Scan software.
Chloroquine at a concentration of 30 μM was included as a positive control. The ability to induce autophagy was determined as a percentage with respect to the untreated control.

[2] = system: cytokine levels in differentiated THP-1 cells treated with LPS; assay: THP-1 human cellular LPS cytokine assay, four independent experiments, per cytokine; assay type: cell-based; settings: LPS 20 ng/mL
[3] = system: cytokines induced in mice by LPS; assay: Mouse LPS cytokine animal model (Example 3), cannabinoids in PB with 5% DMSO; assay type: in vivo; settings: 5 mg/kg
Procedure: This experiment was conducted to compare the ability of CBD, CBDA or the 1:1 equimolar mixture of CBD:CBDA to suppress the induction of cytokines whose expression levels were induced in mice by LPS.
The ability of agents to suppress the immune system can be tested in vivo using an LPS mouse model, in which mice are injected with LPS to cause an immune response (Field et al., 1970; Ghezzi P and Sipe J D, 1988).
Four 20 g female C57BL/6 mice were used per group. The experimental mice were first injected with 0.1 mL of the cannabinoids prepared at 1 mg/mL in phosphate buffer (PB) with 5% DMSO to yield a final dose of 5 mg/kg, followed one hour later by the injection of 0.1 mL of 0.02 mg/mL LPS in PB to yield a final dose of 0.1 mg/kg. Mice injected with 0.1 mL of PB with 5% DMSO and 0.1 mL of PBS served as a non-induced control and mice injected with 0.1 mL of PB with 5% DMSO and 0.1 mL of 0.02 mg/mL LPS in PB served as a LPS untreated control. After allowing two hours for the immune system to be induced by LPS, the mice were then euthanized, heart punctures performed to extract the blood, which was allowed to coagulate on ice for 1 hour before centrifuging to isolate the serum. The levels of 32 of the most common mouse cytokines (Eve Technologies, Calgary, Canada, Table 9) were determined by multi-plex analysis.

[4] = system: cytokine levels in differentiated THP-1 cells treated with LPS; assay: THP-1 human cellular LPS cytokine assay, three independent experiments, total averaged suppression
DPPH antioxidant assay = assay type: biochemical; settings: 100 μM
Procedure: The ability of the cannabinoids to act as potential antioxidants was assessed using the 2,2-diphenyl-1-picrylhydrazyl (DPPH) antioxidant assay. The cannabinoids CBDA, CBD, CBDVA, CBDV, CBG, THCV, and the 1:1 CBD:CBDA mixture had the highest antioxidant activities with radical scavenging activities of 38.19%, 48.00%, 43.81%, 44.21%, 44.28%, 45.71%, and 43.74%, respectively.
The 2,2-diphenyl-1-picrylhydrazyl (DPPH) free radical (Alfa Aesar) was prepared at 0.1 mM in ethanol. The cannabinoids were tested at a final concentration of 100 uM. 2 uL of 7.5 mM stock solutions of the cannabinoids to be tested in DMSO were added to 148 uL of 0.1 mM DPPH to achieve a final concentration of 100 μM in the assay. Ascorbic acid (Thermo Scientific) at a final concentration of 10 mg/ml was used as a positive control. The reaction mixture was incubated in the dark at room temperature for 1 hour, the absorbance of the mixture was read at 517 nm using a Spectra Max 5M microplate reader (Molecular Devices, LLC, Sunnyvale, Calif., USA) and the absorbance was converted to percent radical scavenging activity (% RSA) using the following formula: % RSA=[(Absorbance of the control−Absorbance of the sample)/(Absorbance of the control)]×100.
Free radical production occurs when the immune system is activated and antioxidants represent potential effective treatments for inflammatory conditions and autoimmune diseases. […] The DPPH antioxidant assay can be used to measure the ability of a compound to scavenge free radicals by measuring the ability of compounds to hydrogenate and reduce DPPH. The DPPH assay was conducted on CBCA, CBDA, CBDVA, CBGA, CBLA, CBNA, THCVA, and their decarboxylated derivatives as well as the 1:1 CBD:CBDA mixture.

[5] = system: cytokines induced in mice by LPS; assay: Mouse LPS cytokine model, Example 6D, ALA, DHA and EPA omega-3 samples; assay type: in vivo; settings: mouse, in vivo
Procedure: A series of experiments using a mouse LPS cytokine animal model were performed. In the mouse LPS cytokine animal model, mice were injected with LPS, which induced the immune response shortly after the mice were injected with one of the potential anti-inflammatory compounds under evaluation (the “test compound”). The efficacy of the test compound was evaluated based on its ability to reduce expression levels of inflammatory cytokines that were elevated due to the immune response. The test compounds included a cannabinoid, an omega fatty acid, and a cannabinoid-omega fatty acid composition.
The mice were intraperitoneally injected with 0.1 mL of the test compound. One hour later, the mice were intraperitoneally injected with 0.1 mL of LPS in phosphate buffered saline (PBS). Four hours later, a heart puncture was performed and the blood was allowed to clot to generate serum. 0.1 mL of the serum was diluted 1:2 with PBS and stored at −80° C. The serum was then sent to a laboratory where a mouse cytokine array/chemokine array 31-plex (MD31) analysis was performed that analyzed the expression levels of the 32 cytokines/chemokines listed in Table 9, above.
For each considered test compound, the ability of the test compound to suppress each inflammatory cytokine was calculated by determining the percent suppression.
36 female C57BL/6 mice that weighed approximately 20 g each were obtained and allowed to acclimate for one week after arrival with unlimited access to food and water. On the day of the study, the mice were weighed and split into eight groups of four mice each so that the average weight of each group was as close as possible to each other.
All of the omega fatty acid samples that were tested were diluted so the dose was 12.5 mg of total omega fatty acids per mouse. […] The omega fatty acids samples tested included: (1) pollock oil, 456 mg/mL omega unsaturated fatty acids. The pollock oil contained a mixture of anti-inflammatory omega-3, omega-7 and omega-9 unsaturated fatty acids. […] (2) Flaxseed oil, 656 mg/mL anti-inflammatory omega unsaturated fatty acids. The flaxseed oil contained a mixture of anti-inflammatory omega-3 and omega-9 unsaturated fatty acids. The omega-3 and omega-9 unsaturated fatty acids constituted 77.6% and […], respectively, of the anti-inflammatory omega fatty acids contained in the flaxseed oil. A 12.5 mg dose contained 9.7 mg of ALA in the triglyceride form. (3) Mono 2:1 DHA:EPA, 744 mg/mL omega-3 unsaturated fatty acids that were primarily DHA or EPA. A 12.5 mg dose contained 7.81 mg of DHA and 3.91 mg of EPA. The omega-3 unsaturated fatty acids were in the free mono form. […] A 12.5 mg dose contained 3.85 mg of DHA and 7.69 mg of EPA. The omega-3 unsaturated fatty acids were in the free mono form. (5) Tri 2:1 DHA:EPA, 678.9 mg/mL omega-3 unsaturated fatty acids that were primarily DHA or EPA. A 12.5 mg dose contained 7.88 mg of DHA and 3.94 mg of EPA. The omega-3 unsaturated fatty acids were in the triglyceride form. (6) Tri 1:2 DHA:EPA, 678.9 mg/mL omega-3 unsaturated fatty acids that were primarily DHA or EPA. A 12.5 mg dose contained 3.60 mg of DHA and 7.19 mg of EPA. The omega-3 unsaturated fatty acids were in the triglyceride form.

[6] = rats; cited from earlier work

## C=C(C)[C@@H]1CCC(C)=C[C@H]1c1c(O)cc(CCCCC)c(C(=O)O)c1O [CBDA, 2,4-Dihydroxy-3-[(1R,6R)-6-isopropenyl-3-methyl-2-cyclohexen-1-yl]-6-pentylbenzoic acid]
[1]; 1.0 μM, 12 hours
  Fluorescence (LC3): 37.64
[1]; Homo sapiens, U-937, 12 h, read-out: Induction of autophagy with respect to the untreated control
  activation at 1 µM: -22%
[2]; 2 µM
  EGF suppression: 5.34%
  FGF-β suppression: 30.37%
  Flt-3L suppression: 47.81%
  G-CSF suppression: 77.66%
  GM-CSF suppression: 43.68%
  IFNγ suppression: 60.44%
  IL-1α suppression: 44.04%
  IL-1β suppression: 53.82%
  IL-4 suppression: 10.49%
  IL-6 suppression: 69.39%
  IL-7 suppression: 37.62%
  IL-10 suppression: 23.20%
  IL-12 p70 suppression: 8.24%
  IL-15 suppression: 47.99%
  IL-18 suppression: 37.34%
  IP-10 suppression: 73.87%
  MCP-1 suppression: 54.97%
  MIP-1β suppression: 47.92%
  TNFα suppression: 28.56%
  TNFβ suppression: 45.83%
[2]
  Average cytokine suppression: 42.43%
[3]
  Average cytokine suppression: 13.71%
  GM-CSF suppression: 27.86%
  IFNγ suppression: 31.60%
  IL-1β suppression: 11.89%
  IL-2 suppression: 7.82%
  IL-6 suppression: 6.09%
  IL-12β p40 suppression: 58.93%
  IL-13 suppression: 4.16%
  IL-17 suppression: 7.86%
  IP-10 suppression: 4.58%
  KC suppression: 18.15%
  LIF suppression: 28.12%
  M-CSF suppression: −51.56%
  MIP-1α suppression: 14.86%
  MIP-1β suppression: 9.12%
  MIP-2 suppression: 20.19%
  TNF-α suppression: 19.69%
[4]
  effectiveness at reducing elevated cytokine levels relative to dexamethasone: at least half as effective as dexamethasone
[4]; Homo sapiens, THP-1, 4 h, read-out: % Cytokine Suppression (total averaged)
  inhibition at 2 µM: 37.2%
DPPH antioxidant assay
  radical scavenging activity compared to the untreated control: at least two-fold
DPPH antioxidant assay; 1 hour
  % RSA (radical scavenging activity): 38.19%

## CC/C=C\C/C=C\C/C=C\C/C=C\C/C=C\C/C=C\CCC(=O)O [DHA, (4Z,7Z,10Z,13Z,16Z,19Z)-docosa-4,7,10,13,16,19-hexaenoic acid]
[5]
  anti-inflammatory capability among ALA, DHA and EPA: highest anti-inflammatory capability

## C[S+](C)[O-] [dimethyl sulfoxide]
[6]
  LD50: 14,500 mg/kg

## CC(O)CO (centres unmarked) [propylene glycol]
[6]
  LD50: 20,000 mg/kg
